The compounds below were run against T1, human PAH with the R408W mutation (Homo sapiens, UniProt P00439, R408W) (assay: Cell Based Phenylalanine Flux Assay). Conditions: A375 cells expressing human R408W PAH; 24 hrs compound incubation; 13C-Tyrosine by LC-MS; average where tested multiple times; read-out: AC50.
T1 construct: expressed in transfected cells
T1 sequence (P00439 1-452 R408W): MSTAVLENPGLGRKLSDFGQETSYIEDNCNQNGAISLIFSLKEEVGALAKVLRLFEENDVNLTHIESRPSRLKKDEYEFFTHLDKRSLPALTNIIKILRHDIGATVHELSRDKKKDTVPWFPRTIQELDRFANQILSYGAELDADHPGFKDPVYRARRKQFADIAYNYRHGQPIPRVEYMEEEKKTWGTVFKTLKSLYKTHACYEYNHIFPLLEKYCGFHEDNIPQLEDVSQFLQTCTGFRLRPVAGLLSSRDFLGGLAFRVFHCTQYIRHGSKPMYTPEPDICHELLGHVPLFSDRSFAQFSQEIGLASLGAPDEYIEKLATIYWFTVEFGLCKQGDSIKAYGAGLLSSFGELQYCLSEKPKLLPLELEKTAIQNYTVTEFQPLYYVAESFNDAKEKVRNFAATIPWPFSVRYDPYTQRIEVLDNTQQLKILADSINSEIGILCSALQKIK

AC50 [nM] | Compound
1000 to 5000 | CC(C)(C)CCC(=O)N1CCc2[nH]cnc2[C@@H]1c1nc2ccc(Br)cc2[nH]1 [Example 943, (R)-1-(4-(6-bromo-1H-benzo[d]imidazol-2-yl)-6,7-dihydro-1H-imidazo[4,5-c]pyridin-5(4H)-yl)-4,4-dimethylpentan-1-one]
500 to 1000 | O=C(c1cnn2ccc(F)cc12)N1CCc2[nH]cnc2[C@H]1c1nc2ccccc2[nH]1 [Example 944, (S)-(4-(1H-benzo[d]imidazol-2-yl)-6,7-dihydro-1H-imidazo[4,5-c]pyridin-5(4H)-yl)(5-fluoropyrazolo[1,5-a]pyridin-3-yl)methanone]
< 500 | O=C(CC1CC1)N1CCc2[nH]cnc2[C@H]1c1nc2ccc(Br)cc2[nH]1 [Example 945, (S)-1-(4-(6-bromo-1H-benzo[d]imidazol-2-yl)-6,7-dihydro-1H-imidazo[4,5-c]pyridin-5(4H)-yl)-2-cyclopropylethanone]
500 to 1000 | O=C(CC1CC1)N1CCc2[nH]cnc2[C@@H]1c1nc2ccc(Br)cc2[nH]1 [Example 946, (R)-1-(4-(6-bromo-1H-benzo[d]imidazol-2-yl)-6,7-dihydro-1H-imidazo[4,5-c]pyridin-5(4H)-yl)-2-cyclopropylethanone]
500 to 1000 | O=C(c1cncs1)N1CCc2[nH]cnc2[C@H]1c1nc2ccc(Br)cc2[nH]1 [Example 947, (S)-(4-(6-bromo-1H-benzo[d]imidazol-2-yl)-6,7-dihydro-1H-imidazo[4,5-c]pyridin-5(4H)-yl)(thiazol-5-yl)methanone]
1000 to 5000 | O=C(c1cncs1)N1CCc2[nH]cnc2[C@@H]1c1nc2ccc(Br)cc2[nH]1 [Example 948, (R)-(4-(6-bromo-1H-benzo[d]imidazol-2-yl)-6,7-dihydro-1H-imidazo[4,5-c]pyridin-5(4H)-yl)(thiazol-5-yl)methanone]
< 500 | O=C(c1nc(Cl)cs1)N1CCc2[nH]cnc2[C@H]1c1nc2ccc(Br)cc2[nH]1 [Example 949, (S)-(4-(6-bromo-1H-benzo[d]imidazol-2-yl)-6,7-dihydro-1H-imidazo[4,5-c]pyridin-5(4H)-yl)(4-chlorothiazol-2-yl)methanone]
1000 to 5000 | O=C(c1nc(Cl)cs1)N1CCc2[nH]cnc2[C@@H]1c1nc2ccc(Br)cc2[nH]1 [Example 950, (R)-(4-(6-bromo-1H-benzo[d]imidazol-2-yl)-6,7-dihydro-1H-imidazo[4,5-c]pyridin-5(4H)-yl)(4-chlorothiazol-2-yl)methanone]
> 5000 | O=C(C1CC1)N1CCc2[nH]cnc2[C@@H]1c1nc2ccc(Br)cc2[nH]1 [Example 951, (R)-(4-(6-bromo-1H-benzo[d]imidazol-2-yl)-6,7-dihydro-1H-imidazo[4,5-c]pyridin-5(4H)-yl)(cyclopropyl)methanone]
500 to 1000 | O=C(C1CC1)N1CCc2[nH]cnc2[C@H]1c1nc2ccc(Br)cc2[nH]1 [Example 952, (S)-(4-(6-bromo-1H-benzo[d]imidazol-2-yl)-6,7-dihydro-1H-imidazo[4,5-c]pyridin-5(4H)-yl)(cyclopropyl)methanone]
1000 to 5000 | O=C(CC1CC1)N1CCc2[nH]cnc2[C@@H]1c1nc2ccc(Cl)cc2[nH]1 [Example 953, (R)-1-(4-(6-chloro-1H-benzo[d]imidazol-2-yl)-6,7-dihydro-1H-imidazo[4,5-c]pyridin-5(4H)-yl)-2-cyclopropylethanone]
< 500 | O=C(CC1CC1)N1CCc2[nH]cnc2[C@H]1c1nc2ccc(Cl)cc2[nH]1 [Example 954, (S)-1-(4-(6-chloro-1H-benzo[d]imidazol-2-yl)-6,7-dihydro-1H-imidazo[4,5-c]pyridin-5(4H)-yl)-2-cyclopropylethanone]
500 to 1000 | O=C(c1nc(Cl)cs1)N1CCc2[nH]cnc2[C@H]1c1nc2ccc(Cl)cc2[nH]1 [Example 955, (S)-(4-(6-chloro-1H-benzo[d]imidazol-2-yl)-6,7-dihydro-1H-imidazo[4,5-c]pyridin-5(4H)-yl)(4-chlorothiazol-2-yl)methanone]
